Laboratory results taken from the supplement of paper PMC10307832.

Columns and labels:
Assay in all cases: relative viability (nuclei count vs DMSO), 5 days (fraction); higher = more cells survive
Pictilisib + Navitoclax = compound: CS(=O)(=O)N1CCN(Cc2cc3nc(-c4cccc5[nH]ncc45)nc(N4CCOCC4)c3s2)CC1 [Pictilisib] + CC1(C)CCC(c2ccc(Cl)cc2)=C(CN2CCN(c3ccc(C(=O)NS(=O)(=O)c4ccc(N[C@H](CCN5CCOCC5)CSc5ccccc5)c(S(=O)(=O)C(F)(F)F)c4)cc3)CC2)C1 [Navitoclax] (partner 0.5 µM)
In short: (§1)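 Lung cancer cell lines were pin-tool dosed in 1536-well plates on the day after seeding, with either a lone drug or a fixed anchor-drug dose plus five library-drug doses (not always all listed) in √10 steps. Nuclei were counted on 4× images after 5 days. Relative viability is the ratio of treated-well to vehicle-well nuclei counts, with each value a median of duplicate plates.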

Pictilisib + Dasatinib = compound: CS(=O)(=O)N1CCN(Cc2cc3nc(-c4cccc5[nH]ncc45)nc(N4CCOCC4)c3s2)CC1 [Pictilisib] + Cc1nc(Nc2ncc(C(=O)Nc3c(C)cccc3Cl)s2)cc(N2CCN(CCO)CC2)n1 [Dasatinib] (partner 0.075 µM)
In short: as §1

Pictilisib + Olaparib = compound: CS(=O)(=O)N1CCN(Cc2cc3nc(-c4cccc5[nH]ncc45)nc(N4CCOCC4)c3s2)CC1 [Pictilisib] + O=C(c1cc(Cc2n[nH]c(=O)c3ccccc23)ccc1F)N1CCN(C(=O)C2CC2)CC1 [Olaparib] (partner 8 µM)
In short: as §1

Pictilisib + Pemetrexed = compound: CS(=O)(=O)N1CCN(Cc2cc3nc(-c4cccc5[nH]ncc45)nc(N4CCOCC4)c3s2)CC1 [Pictilisib] + Nc1nc2[nH]cc(CCc3ccc(C(=O)N[C@@H](CCC(=O)O)C(=O)O)cc3)c2c(=O)[nH]1 [Pemetrexed] (partner 0.2 µM)
In short: as §1

MK-2206 + AZD7762 = compound: NC1(c2ccc(-c3nc4ccn5c(=O)[nH]nc5c4cc3-c3ccccc3)cc2)CCC1 [MK-2206] + NC(=O)Nc1cc(-c2cccc(F)c2)sc1C(=O)N[C@H]1CCCNC1 [AZD7762] (partner 0.2 µM)
In short: as §1

| Cell Line | relative viability (Pictilisib + Navitoclax; first compound 0.02 µM) | relative viability (Pictilisib + Navitoclax; first compound 0.06325 µM) | relative viability (Pictilisib + Navitoclax; first compound 0.6325 µM) | relative viability (Pictilisib + Navitoclax; first compound 2 µM) | relative viability (Pictilisib + Dasatinib; first compound 0.02 µM) | relative viability (Pictilisib + Dasatinib; first compound 0.06325 µM) | relative viability (Pictilisib + Dasatinib; first compound 0.6325 µM) | relative viability (Pictilisib + Dasatinib; first compound 2 µM) | relative viability (Pictilisib + Olaparib; first compound 0.02 µM) | relative viability (Pictilisib + Olaparib; first compound 0.06325 µM) | relative viability (Pictilisib + Olaparib; first compound 0.6325 µM) | relative viability (Pictilisib + Olaparib; first compound 2 µM) | relative viability (Pictilisib + Pemetrexed; first compound 0.02 µM) | relative viability (Pictilisib + Pemetrexed; first compound 0.06325 µM) | relative viability (Pictilisib + Pemetrexed; first compound 0.6325 µM) | relative viability (Pictilisib + Pemetrexed; first compound 2 µM) | relative viability (MK-2206 + AZD7762; first compound 0.01 µM) | relative viability (MK-2206 + AZD7762; first compound 0.03162 µM) | relative viability (MK-2206 + AZD7762; first compound 0.3162 µM) | relative viability (MK-2206 + AZD7762; first compound 1 µM) |
| --- | --- | --- | --- | --- | --- | --- | --- | --- | --- | --- | --- | --- | --- | --- | --- | --- | --- | --- | --- | --- |
| COR-L23 | 1.1 | 1.15 | 0.949 | 0.561 | 0.445 | 0.481 | 0.384 | 0.295 | 0.316 | 0.319 | 0.337 | 0.327 | 0.187 | 0.185 | 0.199 | 0.19 |  |  |  |  |
| SK-MES-1 | 1.21 | 1.19 | 0.89 | 0.431 | 0.304 | 0.308 | 0.128 | 0.117 | 0.881 | 0.654 | 0.474 | 0.296 | 0.941 | 0.948 | 0.879 | 0.391 |  |  |  |  |
| NCI-H727 | 0.55 | 0.433 | 0.303 | 0.156 | 0.319 | 0.38 | 0.292 | 0.342 | 0.796 | 0.801 | 0.72 | 0.548 |  |  |  |  | 0.563 | 0.485 | 0.58 | 0.575 |
| NCI-H520 | 1.17 | 1.24 | 0.599 | 0.134 | 0.176 | 0.135 | 0.146 | 0.114 | 0.387 | 0.323 | 0.186 | 0.118 | 0.613 | 0.624 | 0.268 | 0.148 |  |  |  |  |
| HCC-44 | 0.974 | 0.848 | 0.866 | 0.622 |  |  |  |  | 1.02 | 1.06 | 1.12 | 0.915 | 0.655 | 0.642 | 0.695 | 0.673 | 0.961 | 0.98 | 1.04 | 1.02 |
| SW 1573 | 0.804 | 0.951 | 0.742 | 0.348 | 0.485 | 0.524 | 0.288 | 0.161 | 0.512 | 0.542 | 0.377 | 0.22 | 0.845 | 0.91 | 0.52 | 0.424 |  |  |  |  |
| NCI-H2023 | 0.959 | 0.965 | 0.734 | 0.313 | 0.556 | 0.509 | 0.182 | 0.0932 | 0.521 | 0.451 | 0.354 | 0.134 | 0.195 | 0.228 | 0.171 | 0.105 |  |  |  |  |
| SK-LU-1 | 0.972 | 1.04 | 0.624 | 0.41 | 0.159 | 0.168 | 0.103 | 0.109 | 0.451 | 0.492 | 0.409 | 0.367 | 0.967 | 1.07 | 0.835 | 0.624 |  |  |  |  |
| NCI-H358 |  |  |  |  | 0.147 | 0.148 | 0.123 | 0.0945 | 0.627 | 0.729 | 0.479 | 0.271 | 0.172 | 0.165 | 0.161 | 0.133 | 0.628 | 0.423 | 0.552 | 0.609 |
| ABC-1 |  |  |  |  | 0.664 | 0.55 | 0.522 | 0.473 | 0.781 | 0.721 | 0.79 | 0.721 |  |  |  |  | 0.795 | 0.787 | 0.85 | 0.814 |
| EBC-1 | 0.38 | 0.412 | 0.164 | 0.126 |  |  |  |  | 0.681 | 0.741 | 0.564 | 0.243 |  |  |  |  |  |  |  |  |
| NCI-H1703 | 1.38 | 0.805 | 0.305 | 0.204 |  |  |  |  | 0.471 | 0.378 | 0.214 | 0.122 |  |  |  |  | 0.14 | 0.105 | 0.112 | 0.112 |
| NCI-H1563 |  |  |  |  | 0.431 | 0.39 | 0.356 | 0.316 |  |  |  |  | 0.742 | 0.764 | 0.635 | 0.45 |  |  |  |  |
| NCI-H2228 | 0.948 | 0.563 | 0.59 | 0.181 | 0.654 | 0.433 | 0.317 | 0.167 | 0.715 | 0.734 | 0.45 | 0.209 | 0.316 | 0.252 | 0.334 | 0.119 |  |  |  |  |
| NCI-H1299 | 1.09 | 1.05 | 1.1 | 1.13 |  |  |  |  | 0.996 | 1.01 | 1.03 | 0.858 |  |  |  |  |  |  |  |  |
| A549 | 1.32 | 1.25 | 0.919 | 0.401 |  |  |  |  | 0.441 | 0.355 | 0.283 | 0.211 |  |  |  |  |  |  |  |  |
| NCI-H522 |  |  |  |  | 0.75 | 0.984 | 0.79 | 0.664 | 0.619 | 0.663 | 0.561 | 0.493 | 1.08 | 1.1 | 0.796 | 0.481 | 0.85 | 0.763 | 0.993 | 0.762 |
| NCI-H1650 | 1.21 | 1.19 | 0.828 | 0.31 | 0.406 | 0.277 | 0.174 | 0.16 | 0.593 | 0.759 | 0.761 | 0.691 | 0.325 | 0.361 | 0.358 | 0.302 |  |  |  |  |
| NCI-H1648 |  |  |  |  |  |  |  |  | 0.701 | 0.561 | 0.355 | 0.264 | 0.72 | 0.802 | 0.614 | 0.41 | 0.657 | 0.481 | 0.797 | 0.855 |
| NCI-H661 |  |  |  |  | 0.942 | 0.878 | 0.439 | 0.304 | 0.85 | 0.746 | 0.815 | 0.563 | 0.956 | 0.982 | 0.9 | 0.711 |  |  |  |  |
| NCI-H2342 |  |  |  |  | 0.263 | 0.305 | 0.289 | 0.267 | 0.446 | 0.379 | 0.406 | 0.242 | 0.695 | 0.782 | 0.677 | 0.528 | 0.527 | 0.478 | 0.423 | 0.376 |
| Calu-6 | 0.911 | 0.855 | 0.656 | 0.569 |  |  |  |  | 0.656 | 0.554 | 0.589 | 0.519 |  |  |  |  |  |  |  |  |
